Reference: patent US7000348B2, “Method and composition for tree root colonization” (Vamtech, LLC, priority 2003, dated 2006)
Entries after “also recorded” stand apart in the source; their conditions may differ.

Columns and labels:
Type in all cases: in vivo
R. rubescens = experiment: Mycorrhizal colonization of Ponderosa pine seedlings by Rhizopogon (root tip tally); conditions: potassium formononetinate 60 mg/L with R. rubescens spores vs spores alone
Experimental: (§1) Ponderosa pine seeds were sown in a soilless mix (50:50 peat:vermiculite) in 2 cm^3 cells in STRYOBLOCK™ containers (Beaver Plastics, Corvallis, Oreg.) inside the greenhouse at the J. Herbert Stone Nursery in Central Point, Oreg. Eight weeks after germination, all emerging ponderosa pine seedlings were inoculated with 100,000 spores each of the ectomycorrhizal fungus R. rubescens using a liquid suspension applied via a traveling irrigation boom. Liquid spore suspension was prepared by maceration of R. rubescens sporocarps in distilled water for 10 min, followed by serial dilution with distilled water. Spore concentrations were determined using a hemacytometer. Soluble fertilizer (250 ppm N, 60 ppm P and 158 ppm K plus micronutrients) was applied with irrigation for optimum growth. Temperatures were held between 65° F. and 75° F. in the greenhouse. The seedlings were hardened off about six months after sowing by reducing the amount of irrigation water and fertilizer in it (to 50 ppm N, 31 ppm P and 150 ppm K plus micronutrients). No pesticides were used on the crop during this period. Ponderosa pine seedlings were then each inoculated again with 100,000 spores of R. rubescens using the same inoculation procedure. […]
(§2) All trials were conducted in a randomized complete block design. […] Means comparisons were calculated using Fisher's LSD (least significant difference). […]

R. parksii = experiment: Mycorrhizal colonization of Douglas-fir roots by Rhizopogon (root tip tally)
Source text: (§3) Douglas-fir seeds were sown in 2 cm^3 in cells in Stryoblock™ containers filled with soilless mix (50:50 peat:vermiculite) in the greenhouse at the J. Herbert Stone Nursery in Central Point, Oreg. Soluble fertilizer applications, temperatures, and hardening off procedure were the same as those described for Ponderosa pine above. No pesticides were used on the crop during this period, and no mycorrhizal inoculum was applied prior to applications of treatments.
(§4) Eight months after sowing, fourteen Douglas-fir seedlings were randomly sampled (2 or 3 from 6 trays) to determine colonization by the mycorrhizal fungus R. parksii. No colonization by R. parksii was present at this time. […]
as §2

Ponderosa pine seedlings [1] = experiment: Caliper diameter of Ponderosa pine seedlings; conditions: potassium formononetinate 60 mg/L added to R. rubescens inoculation
Experimental: as §1, with “greenhouse.” for “greenhouse. The seedlings were hardened off about six months after sowing by reducing the amount of irrigation water and fertilizer in it (to 50 ppm N, 31 ppm P and 150 ppm K plus micronutrients). No pesticides were used on the crop during this period. Ponderosa pine seedlings were then each inoculated again with 100,000 spores of R. rubescens using the same inoculation procedure.”
(§5) The diameter of all seedlings in all of the treatments was then measured with a caliper. […] Samples were analyzed for total nitrogen and phosphorus (Kjeldahl digest with ammonia and orthophosphate read on an auto-analyzer), and extractable potassium (microwave digestion) with inductively couples argon plasma spectrometer (ICPMS).
as §2

Douglas-fir seedlings [2] = experiment: Caliper diameter of Douglas-fir seedlings
Source text: as §3, §4, §5, §2

Ponderosa pine seedlings [3] = experiment: Foliar nutrient analysis of Ponderosa pine needles; conditions: 60 mg/L, vs seedlings treated with R. rubescens alone
Experimental: as §1, with “greenhouse.” for “greenhouse. The seedlings were hardened off about six months after sowing by reducing the amount of irrigation water and fertilizer in it (to 50 ppm N, 31 ppm P and 150 ppm K plus micronutrients). No pesticides were used on the crop during this period. Ponderosa pine seedlings were then each inoculated again with 100,000 spores of R. rubescens using the same inoculation procedure.”
as §5, §2

Douglas-fir seedlings [4] = experiment: Foliar nutrient analysis of Douglas-fir needles
Source text: as §3
Eight months after sowing, fourteen Douglas-fir seedlings were randomly sampled (2 or 3 from 6 trays) to determine colonization by the mycorrhizal fungus R. parksii. No colonization by R. parksii was present at this time. The treatments applied to three trays of 20 seedlings each were a control with no potassium formononetinate or mycorrhizal inoculation (C), potassium formononetinate only at 20 mg/L of soilless mix (M-20), mycorrhizal inoculation only at 100,000 R. parksii spores/cavity applied with a graduated pipette (R-100), mycorrhizal inoculation with R. parksii at 100,000 spores per cavity plus potassium formononetinate at 20 mg/L of soilless mix (0.11 per 60 seedlings) (M-20+R-100), mycorrhizal inoculation with R. parksii at 100,000 spores per cavity plus potassium formononetinate at 60 mg/L of soilless mix (0.33 per 60 seedlings) (M-60+R-100), and mycorrhizal inoculation with R. parksii at 50,000 spores cavity plus potassium formononetinate at 20 mg/L of soilless mix (M-20+R-50). Potassium formononetinate was provided by VAMTech L.L.C., Lansing, Mich.
The diameter of all seedlings in all of the treatments was then measured with a caliper. Needle samples for Ponderosa pine and Douglas-fir were collected from 4 randomly selected seedlings in each treatment for foliar analysis. Samples were analyzed for total nitrogen and phosphorus (Kjeldahl digest with ammonia and orthophosphate read on an auto-analyzer), and extractable potassium (microwave digestion) with inductively couples argon plasma spectrometer (ICPMS).
All trials were conducted in a randomized complete block design. Analyses of variance (ANOVA) were performed separately for seedling caliper, nutrient content, and mycorrhizal colonization (Steel and Torrie 1980). Means comparisons were calculated using Fisher's LSD (least significant difference). Residuals from the performed ANOVA's were examined using normal probability plots, tests that the residuals come from normal distributions and plots of residuals versus predicted values. Before analysis, mycorrhizal colonization data as logarithmically transformed to compensate for log-normally distributed values (Steel and Torrie 1980).

[5] = M = potassium formononetinate mg/L, R = R. parksii spores x1000 per cavity
[6] = R. parksii and potassium formononetinate, over the untreated control, but not over R. parksii alone

**Q.** Which “root colonization by Rhizopogon, Ponderosa pine (effect in words)” value (R. rubescens) does the source give for `COc1ccc(-c2coc3cc([O-])ccc3c2=O)cc1.[K+]` [potassium formononetinate, potassium salt of 7-hydroxy, 4′-methoxy isoflavone] here?
**A.** significantly increased

**Q.** And the “root colonization by Rhizopogon, Douglas-fir (effect in words)” value (R. parksii; potassium formononetinate 60 mg/L with R. parksii spores)?
**A.** significantly increased

**Q.** And the “Mycorrhizal colonization of Douglas-fir roots by R. parksii” value (R. parksii; thirteen months after sowing, M-20/M-60 = potassium formononetinate 20/60 mg/L of soilless mix, R-100/R-50 = 100,000/50,000 R. parksii spores per cavity)?
**A.** 0%

**Q.** And the “caliper diameter, Ponderosa pine (effect in words)” value (Ponderosa pine seedlings [1])?
**A.** not significantly increased; also recorded: not significantly affected

**Q.** What about the “caliper diameter, Douglas-fir” value (Douglas-fir seedlings [2]; thirteen months after sowing, M = potassium formononetinate mg/L, R = R. parksii spores x1000 per cavity) of the same molecule?
**A.** 0.2 cm

**Q.** And the “caliper size, Douglas-fir (effect in words)” value (Douglas-fir seedlings [2]; vs untreated control, R. parksii alone or plus potassium formononetinate)?
**A.** increased caliper size over the control

**Q.** What about the “nitrogen content, Ponderosa pine (effect in words)” value (Ponderosa pine seedlings [3]) of the same molecule?
**A.** significantly increased

**Q.** And the “potassium content, Douglas-fir (effect in words)” value (Douglas-fir seedlings [4]; 60 mg/L plus R. parksii, vs untreated plants, R. parksii alone and any other treatment)?
**A.** significantly higher

**Q.** And the “foliar nitrogen content, Douglas-fir needles” value (Douglas-fir seedlings [4]; [5])?
**A.** 1.29%

**Q.** What about the “foliar phosphorous content, Douglas-fir needles” value (Douglas-fir seedlings [4]; [5]) of the same molecule?
**A.** 0.15%

**Q.** And the “nitrogen content, Douglas-fir (effect in words)” value (Douglas-fir seedlings [4]; [6])?
**A.** significantly increased

**Q.** What about the “phosphorus content, Douglas-fir (effect in words)” value (Douglas-fir seedlings [4]; [6]) of the same molecule?
**A.** significantly increased
